{"source": "patent US12037375B2", "about": "“Protein variant and composition for treating neurodegenerative disease using the same” (KOREA UNIVERSITY RESEARCH AND BUSINESS FOUNDATION, priority 2021, dated 2024)", "tested_on": "SH-SY-5Y neuroblastoma cells", "experiment": "Cell viability by MTT assay", "assay_type": "cell-based", "settings": "FIG. 4", "experimental": "SH-SY-5Y neuroblastoma cells were purchased from the Korean Cell Line Bank (Seoul, South Korea) and incubated in a 1:1 mixture of Dulbecco's modified eagle medium/F-12 nutrient mixture ham (DMEM/F-12; WelGENE) supplemented with 10% fetal bovine serum (FBS; Capricorn Scientific GmbH, Ebsdorfergrund, Germany) and 1% antibiotic (10,000 U/mL penicillin G, 10,000 μg/mL streptomycin and 25 μg/mL amphotericin B; Hyclone, Logan, UT, USA). The antibiotic was sterilized through a 0.2 μm filter before use and the cells were incubated at 37° C. under humid conditions including 5% CO2.\nSpecifically, 15,000 cells were grown in each well of a 96-well plate and incubated for 24 hours. […] Then, the MTT solution was added to the medium and incubated at 37° C. for 3 hours to form the MTT-formazan product. The amount of the product was quantified as the extent of absorption at a wavelength of 540 nm.\nEach test was conducted on three samples at a time and the entire test was repeated three times to ensure reproducibility.\nSpecifically, 15,000 cultured neuroblastoma were added with each of 1 uM of a monomer protein and 1 uM of a fibrous protein, and incubated for 2 days, and then the change in cytotoxicity was measured using MTT reagent."}
{"smiles": "CC[C@H](C)[C@H](NC(=O)[C@H](C)NC(=O)CNC(=O)[C@H](CCCCN)NC(=O)[C@H](CC(N)=O)NC(=O)[C@H](CO)NC(=O)CNC(=O)[C@@H](NC(=O)[C@H](CC(=O)O)NC(=O)[C@H](CCC(=O)O)NC(=O)[C@H](C)NC(=O)[C@H](Cc1ccccc1)NC(=O)[C@H](CC(N)=O)NC(=O)[C@@H](NC(=O)[C@H](CC(C)C)NC(=O)[C@H](CCCCN)NC(=O)[C@H](CCC(N)=O)NC(=O)[C@H](Cc1c[nH]cn1)NC(=O)[C@H](Cc1c[nH]cn1)NC(=O)[C@@H](NC(=O)[C@H](CCC(=O)O)NC(=O)[C@H](Cc1ccc(O)cc1)NC(=O)CNC(=O)[C@H](CO)NC(=O)[C@H](CC(=O)O)NC(=O)[C@H](Cc1c[nH]cn1)NC(=O)[C@H](CCCNC(=N)N)NC(=O)[C@H](Cc1ccccc1)NC(=O)[C@H](CCC(=O)O)NC(=O)[C@H](C)NC(=O)[C@@H](N)CC(=O)O)C(C)C)C(C)C)C(C)C)C(=O)N[C@@H](CC(N)=O)C(=O)NCC(=O)N[C@@H](CC(N)=O)C(=O)N[C@@H](CCSC)C(=O)N[C@H](C(=O)NCC(=O)NCC(=O)N[C@H](C(=O)N[C@H](C(=O)N[C@H](C(=O)N[C@@H](CC(N)=O)C(=O)O)[C@@H](C)CC)C(C)C)C(C)C)C(C)C", "values": [{"measurement": "cytotoxicity", "result": "reduced cytotoxicity"}]}
